Data taken from patent US10150760B2, “Compounds for use in preparing heterocyclic triazole agonists of the APJ receptor” (AMGEN INC., priority 2016, dated 2018).

What was measured:
[1] = molecular target: human APJ receptor (Homo sapiens (Human), UniProt P35414); assay: [35S]GTPγS binding assay on membranes from CHO cells stably expressing human APJ receptor; format: biochemical; conditions: read-out: Activity hAPJ SPA EC50 IP
How it was run: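 Agonist-driven [35S]GTPγS (0.2 nM) binding was measured over 90 min at room temperature on human APJ-expressing CHO membranes with bead capture, in buffer containing 3 μM GDP, 200 mM NaCl and 5 mM MgCl2 (pH 7.5). Excess unlabelled GTPγS (100 μM) gave nonspecific signal; EC50 from non-linear fits.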

[2] = system: isolated perfused rat hearts; assay: Ex vivo isolated perfused rat heart assay (Langendorff apparatus), load independent inotropic and lusitropic effects; set-up: species or system Sprague Dawley rat; conditions: ex vivo isolated perfused rat heart, percent change over vehicle; for Isolated Heart Assay dP/dtmax (%): contractility; for Isolated Heart Assay dP/dtmin (%): relaxation
Description: Evidence for Load Independent Inotropic Effects with APJ Agonists Using Ex Vivo Assay (Isolated Perfused Rat Hearts)
Naive Sprague Dawley® SD rats (Harlan laboratories (Livermore, Calif. USA)) were anaesthetized and hearts were excised followed by cannulation in the Langendorff apparatus (Harvard apparatus, Holliston, Mass. USA) via aorta. The heart was perfused retrograde with modified oxygenated Krebs-Henseleit buffer (Skrzypiec-Spring M et al., (2007) J. Pharmacol Toxicol Methods 55: 113-126). The pressure of the solution causes the aortic valve to shut and the perfusate is then forced into the ostium and the coronary vessels. This allows the heart to beat for several h. A balloon was inserted into the left ventricle (LV) to measure dP/dtmax (derivative of left ventricular pressure) as an index of cardiac contractility. The APJ agonist was perfused constantly in a dose dependent manner into the heart to examine cardiac contractility.
Example 49.0 was infused at different concentrations and load independent contractility was measured by index of LV dP/dtmax and the results are expressed as a percent change over vehicle. […] Example 49.0 was infused at different concentrations and load independent lusitropic effect (relaxation) was measured by index of LV dP/dtmin where results are expressed as percent change over vehicle. […] Example 60.0 was infused at different concentrations and load independent contractility was measured by index of LV dP/dtmax and the results are expressed as a percent change over vehicle. […] Example 60.0 was infused at different concentrations and load independent lusitropic effect (relaxation) was measured by index of LV dP/dtmin where results are expressed as percent change over vehicle.

Sequence of human APJ receptor (P35414 whole entry): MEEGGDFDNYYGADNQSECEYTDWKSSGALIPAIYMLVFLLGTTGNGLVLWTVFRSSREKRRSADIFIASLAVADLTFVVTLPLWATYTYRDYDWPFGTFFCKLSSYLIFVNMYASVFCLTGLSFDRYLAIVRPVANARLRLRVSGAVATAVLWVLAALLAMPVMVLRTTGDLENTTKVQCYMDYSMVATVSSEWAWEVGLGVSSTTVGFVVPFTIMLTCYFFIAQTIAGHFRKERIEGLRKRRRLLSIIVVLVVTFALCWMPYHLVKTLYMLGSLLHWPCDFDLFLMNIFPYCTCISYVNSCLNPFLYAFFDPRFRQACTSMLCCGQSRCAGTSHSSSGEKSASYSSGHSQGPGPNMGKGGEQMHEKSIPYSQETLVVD

Compound | EC50 [1] | Isolated Heart Assay dP/dtmax (%) [2] | Isolated Heart Assay dP/dtmin (%) [2]
COc1cccc(OC)c1-n1c(NS(=O)(=O)[C@@H](C)[C@H](C)c2ncc(Cl)cn2)nnc1[C@H]1CCCOC1 (single isomer, unassigned) [Example 63.0, (2S,3R)-3-(5-chloropyrimidin-2-yl)-N-(4-(2,6-dimethoxyphenyl)-5-((R)-tetrahydro-2H-pyran-3-yl)-4H-1,2,4-triazol-3-yl)butane-2-sulfonamide or (2S,3R)-3-(5-chloropyrimidin-2-yl)-N-(4-(2,6-dimethoxyphenyl)-5-((S)-tetrahydro-2H-pyran-3-yl)-4H-1,2,4-triazol-3-yl)butane-2-sulfonamide] | 1.5 nM | 14.0% | 11.0%
COc1cccc(OC)c1-n1c(NS(=O)(=O)[C@@H](C)[C@H](OC)c2ncc(Cl)cn2)nnc1[C@H]1CCCOC1 (single isomer, unassigned) [Example 65.0, (1R,2S)-1-(5-chloropyrimidin-2-yl)-N-(4-(2,6-dimethoxyphenyl)-5-((R)-tetrahydro-2H-pyran-3-yl)-4H-1,2,4-triazol-3-yl)-1-methoxypropane-2-sulfonamide or (1R,2S)-1-(5-chloropyrimidin-2-yl)-N-(4-(2,6-dimethoxyphenyl)-5-((S)-tetrahydro-2H-pyran-3-yl)-4H-1,2,4-triazol-3-yl)-1-methoxypropane-2-sulfonamide] | 2.9 nM | 6.0% | No effect
COc1cccc(OC)c1-n1c(NS(=O)(=O)[C@@H](C)[C@H](C)c2ncc(C)cn2)nnc1[C@H]1OCC[C@H]1C (single isomer, unassigned) [Example 72.0, (2S,3R)-N-(4-(2,6-dimethoxyphenyl)-5-((2R,3S)-3-methyltetrahydrofuran-2-yl)-4H-1,2,4-triazol-3-yl)-3-(5-methylpyrimidin-2-yl)butane-2-sulfonamide or (2S,3R)-N-(4-(2,6-dimethoxyphenyl)-5-((2S,3R)-3-methyltetrahydrofuran-2-yl)-4H-1,2,4-triazol-3-yl)-3-(5-methylpyrimidin-2-yl)butane-2-sulfonamide] | 6.8 nM | 5.9% | 2.5%
COc1cccc(OC)c1-n1c(NS(=O)(=O)[C@@H](C)[C@H](OC)c2ncc(Cl)cn2)nnc1[C@H]1OCC[C@H]1C (single isomer, unassigned) [Example 73.0, (1R,2S)-1-(5-chloropyrimidin-2-yl)-N-(4-(2,6-dimethoxyphenyl)-5-((2R,3S)-3-methyltetrahydrofuran-2-yl)-4H-1,2,4-triazol-3-yl)-1-methoxypropane-2-sulfonamide or (1R,2S)-1-(5-chloropyrimidin-2-yl)-N-(4-(2,6-dimethoxyphenyl)-5-((2S,3R)-3-methyltetrahydrofuran-2-yl)-4H-1,2,4-triazol-3-yl)-1-methoxypropane-2-sulfonamide] | 1.4 nM | 2.0% | No effect
COc1cccc(OC)c1-n1c(NS(=O)(=O)[C@@H](C)[C@H](OC)c2ncc(Cl)cn2)nnc1[C@H]1OCC[C@H]1C (single isomer, unassigned) [Example 74.0, (1R,2S)-1-(5-chloropyrimidin-2-yl)-N-(4-(2,6-dimethoxyphenyl)-5-((2R,3S)-3-methyltetrahydrofuran-2-yl)-4H-1,2,4-triazol-3-yl)-1-methoxypropane-2-sulfonamide or (1R,2S)-1-(5-chloropyrimidin-2-yl)-N-(4-(2,6-dimethoxyphenyl)-5-((2S,3R)-3-methyltetrahydrofuran-2-yl)-4H-1,2,4-triazol-3-yl)-1-methoxypropane-2-sulfonamide] | 120 nM | 5.8% | 2.1%
COc1cccc(OC)c1-n1c(NS(=O)(=O)[C@@H](C)[C@H](OC)c2ncc(Cl)cn2)nnc1[C@H]1CC[C@@H](C)O1 (single isomer, unassigned) [Example 77.0, (1R,2S)-1-(5-chloropyrimidin-2-yl)-N-(4-(2,6-dimethoxyphenyl)-5-((2S,5S)-5-methyltetrahydrofuran-2-yl)-4H-1,2,4-triazol-3-yl)-1-methoxy-propane-2-sulfonamide or (1R,2S)-1-(5-chloropyrimidin-2-yl)-N-(4-(2,6-dimethoxyphenyl)-5-((2R,5R)-5-methyltetrahydrofuran-2-yl)-4H-1,2,4-triazol-3-yl)-1-methoxypropane-2-sulfonamide] | 0.14 nM | 5.0% | No effect
COc1cccc(OC)c1-n1c(NS(=O)(=O)[C@@H](C)[C@H](OC)c2ncc(Cl)cn2)nnc1[C@H]1CC[C@@H](C)O1 (single isomer, unassigned) [Example 78.0, (1R,2S)-1-(5-chloropyrimidin-2-yl)-N-(4-(2,6-dimethoxyphenyl)-5-((2S,5S)-5-methyltetrahydrofuran-2-yl)-4H-1,2,4-triazol-3-yl)-1-methoxy-propane-2-sulfonamide or (1R,2S)-1-(5-chloropyrimidin-2-yl)-N-(4-(2,6-dimethoxyphenyl)-5-((2R,5R)-5-methyltetrahydrofuran-2-yl)-4H-1,2,4-triazol-3-yl)-1-methoxypropane-2-sulfonamide] | 5 nM | 7.09% | 8.61%
COc1ncnc(OC)c1-n1c(NS(=O)(=O)[C@@H](C)[C@H](OC)c2ncc(Cl)cn2)nnc1[C@H]1CCCO1 (single isomer, unassigned) [Example 80.0, (1R,2S)-1-(5-chloropyrimidin-2-yl)-N-(4-(4,6-dimethoxypyrimidin-5-yl)-5-((S)-tetrahydrofuran-2-yl)-4H-1,2,4-triazol-3-yl)-1-methoxypropane-2-sulfonamide or (1R,2S)-1-(5-chloropyrimidin-2-yl)-N-(4-(4,6-dimethoxypyrimidin-5-yl)-5-((R)-tetrahydrofuran-2-yl)-4H-1,2,4-triazol-3-yl)-1-methoxypropane-2-sulfonamide] | 9.1 nM | No effect | No effect
COc1cccc(OC)c1-n1c(NS(=O)(=O)[C@@H](C)[C@@H](OC(C)C)c2ncc(C)cn2)nnc1[C@H]1CCCO1 (single isomer, unassigned) [Example 97.0, (1S,2S)-N-(4-(2,6-dimethoxyphenyl)-5-((S)-tetrahydrofuran-2-yl)-4H-1,2,4-triazol-3-yl)-1-isopropoxy-1-(5-methylpyrimidin-2-yl)propane-2-sulfonamide or (1S,2S)-N-(4-(2,6-dimethoxyphenyl)-5-((R)-tetrahydrofuran-2-yl)-4H-1,2,4-triazol-3-yl)-1-isopropoxy-1-(5-methyl-pyrimidin-2-yl)propane-2-sulfonamide] | 15 nM | 5.5% | 2.0%
COc1ncnc(OC)c1-n1c(NS(=O)(=O)[C@@H](C)[C@H](C)c2ncc(Cl)cn2)nnc1[C@H]1CCCOC1 (single isomer, unassigned) [Example 102.0, (2S,3R)-3-(5-chloropyrimidin-2-yl)-N-(4-(4,6-dimethoxypyrimidin-5-yl)-5-((S)-tetrahydro-2H-pyran-3-yl)-4H-1,2,4-triazol-3-yl)butane-2-sulfonamide or (2S,3R)-3-(5-chloropyrimidin-2-yl)-N-(4-(4,6-dimethoxypyrimidin-5-yl)-5-((R)-tetrahydro-2H-pyran-3-yl)-4H-1,2,4-triazol-3-yl)butane-2-sulfonamide] | 5.2 nM | 2.0% | 5.0%
CO[C@H](c1ncc(Cl)cn1)[C@H](C)S(=O)(=O)Nc1nnc([C@H]2CCCCO2)n1C1(C)CC1 (single isomer, unassigned) [Example 112.0, (1R,2S)-1-(5-chloropyrimidin-2-yl)-1-methoxy-N-(4-(1-methylcyclopropyl)-5-((S)-tetrahydro-2H-pyran-2-yl)-4H-1,2,4-triazol-3-yl)propane-2-sulfonamide or (1R,2S)-1-(5-chloropyrimidin-2-yl)-1-methoxy-N-(4-(1-methylcyclopropyl)-5-((R)-tetrahydro-2H-pyran-2-yl)-4H-1,2,4-triazol-3-yl)propane-2-sulfonamide] | 14 nM | No effect | No effect
